# Test results as given in patent US6737383B1, “Herbicidal oxadiazolidines” (priority 1999, dated 2004).
# How the values were obtained:
# bedstraw = assay: Test B pre/postemergence bedstraw; format: in vivo, Galium aparine
# Method in brief: (§1)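 Herbicidal effect was estimated by eye on a ten-point control scale after plants spent twelve to sixteen days in a greenhouse following soil or foliar treatment. Foliar sprays targeted plants at one to four leaves; all doses were formulated in a non-phytotoxic solvent with surfactant.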
# blackgrass = assay: Test B pre/postemergence blackgrass; format: in vivo, Alopecurus myosuroides
# Method in brief: as §1
# surinam grass = assay: Test B pre/postemergence surinam grass; format: in vivo, Brachiaria decumbens
# Method in brief: as §1
# cocklebur = assay: Test B pre/postemergence cocklebur; format: in vivo, Xanthium strumarium
# Method in brief: as §1
# corn = assay: Test B pre/postemergence corn; format: in vivo, Zea mays
# Method in brief: as §1
# crabgrass = assay: Test B pre/postemergence crabgrass; format: in vivo, Digitaria sanguinalis
# Method in brief: as §1
# giant foxtail = assay: Test B pre/postemergence giant foxtail; format: in vivo, Setaria faberii
# Method in brief: as §1
# morningglory = assay: Test B pre/postemergence morningglory; format: in vivo, Ipomoea hederacea
# Method in brief: as §1
# pigweed = assay: Test B pre/postemergence pigweed; format: in vivo, Amaranthus retroflexus
# Method in brief: as §1
# rape = assay: Test B pre/postemergence rape; format: in vivo, Brassica napus
# Method in brief: as §1
# soybean = assay: Test B pre/postemergence soybean; format: in vivo, Glycine max
# Method in brief: as §1
# sugar beet = assay: Test B pre/postemergence sugar beet; format: in vivo, Beta vulgaris
# Method in brief: as §1
# velvetleaf = assay: Test B pre/postemergence velvetleaf; format: in vivo, Abutilon theophrasti
# Method in brief: as §1
# wheat = assay: Test B pre/postemergence wheat; format: in vivo, Triticum aestivum
# Method in brief: as §1
# wild oat = assay: Test B pre/postemergence wild oat; format: in vivo, Avena fatua
# Method in brief: as §1
# purple nutsedge = assay: Test B pre/postemergence purple nutsedge; format: in vivo, Cyperus rotundus
# Method in brief: as §1
# [1] = Postemergence, Rate 62 g/ha, scale of 0 to 10, 0 is no effect, 10 is complete control
# [2] = Postemergence, Rate 125 g/ha, scale 0 to 10, 0 is no effect, 10 is complete control
# [3] = Postemergence, Rate 500 g/ha, scale 0 to 10, 0 is no effect, 10 is complete control
# [4] = Preemergence, Rate 62 g/ha, scale of 0 to 10 where 0 is no effect and 10 is complete control
# [5] = Preemergence, Rate 125 g/ha, scale 0 to 10, 0 is no effect, 10 is complete control
# [6] = Preemergence, Rate 500 g/ha, scale 0 to 10, 0 is no effect, 10 is complete control
# [7] = Rate 250 g/ha, Postemergence, scale of 0 to 10 where 0 is no effect and 10 is complete control
# [8] = Preemergence, Rate 500 g/ha, scale of 0 to 10 where 0 is no effect and 10 is complete control
compound,measurement,setting,value
CC(C)N(C(=O)n1oc(=O)n(CCCCF)c1=O)c1ccc(F)cc1F [Compound 522],Bedstraw plant response rating,bedstraw; [1],0
same,Bedstraw plant response rating,bedstraw; [2],0
same,"Plant response rating, Bedstraw",bedstraw; [3],10
same,"Plant response rating, Bedstraw",bedstraw; [4],10
same,Bedstraw plant response rating,bedstraw; [5],10
same,Bedstraw plant response rating (0 to 10 scale),"bedstraw; Preemergence, Rate 250 g/ha",10
same,Bedstraw plant response rating,bedstraw; [6],10
same,"Plant response rating, Bedstraw",bedstraw; [7],9
same,Blackgrass plant response rating,blackgrass; [1],8
same,Blackgrass plant response rating,blackgrass; [2],8
same,"Plant response rating, Blackgrass",blackgrass; [3],8
same,"Plant response rating, Blackgrass",blackgrass; [4],4
same,Blackgrass plant response rating,blackgrass; [5],8
same,Blackgrass plant response rating (0 to 10 scale),"blackgrass; Preemergence, Rate 250 g/ha",9
same,Blackgrass plant response rating,blackgrass; [8],9
same,"Plant response rating, Blackgrass",blackgrass; [7],8
same,B. signalgrass plant response rating,surinam grass; [1],0
same,B. signalgrass plant response rating,surinam grass; [2],5
same,"Plant response rating, B. signalgrass",surinam grass; [3],7
same,"Plant response rating, B. signalgrass",surinam grass; [4],10
same,B. signalgrass plant response rating,surinam grass; [5],9
same,"B. signalgrass plant response rating (0 to 10 scale, 0 is no effect, 10 is complete control)","surinam grass; Preemergence, Rate 250 g/ha",9
same,B. signalgrass plant response rating,surinam grass; [6],9
same,"Plant response rating, B. signalgrass",surinam grass; [7],7
same,Cocklebur plant response rating,cocklebur; [1],0
same,Cocklebur plant response rating,cocklebur; [2],3
same,"Plant response rating, Cocklebur",cocklebur; [3],3
same,"Plant response rating, Cocklebur",cocklebur; [4],0
same,Cocklebur plant response rating,cocklebur; [5],0
same,Cocklebur plant response rating (0 to 10 scale),"cocklebur; Preemergence, Rate 250 g/ha",0
same,"Plant response rating, Cocklebur",cocklebur; [7],3
same,Corn plant response rating,corn; [1],0
same,Corn plant response rating,corn; [2],3
same,"Plant response rating, Corn",corn; [3],5
same,"Plant response rating, Corn",corn; [4],2
same,Corn plant response rating,corn; [5],7
same,Corn plant response rating (0 to 10 scale),"corn; Preemergence, Rate 250 g/ha",7
same,Corn plant response rating,corn; [8],9
same,"Plant response rating, Corn",corn; [7],3
same,Crabgrass plant response rating,crabgrass; [1],8
same,Crabgrass plant response rating,crabgrass; [2],8
same,"Plant response rating, Crabgrass",crabgrass; [3],9
same,"Plant response rating, Crabgrass",crabgrass; [4],9
same,Crabgrass plant response rating,crabgrass; [5],10
same,Crabgrass plant response rating (0 to 10 scale),"crabgrass; Preemergence, Rate 250 g/ha",10
same,Crabgrass plant response rating,crabgrass; [8],10
same,"Plant response rating, Crabgrass",crabgrass; [7],8
same,Giant foxtail plant response rating,giant foxtail; [1],8
same,Giant foxtail plant response rating,giant foxtail; [2],8
same,"Plant response rating, Giant foxtail",giant foxtail; [3],9
same,"Plant response rating, Giant foxtail",giant foxtail; [4],10
same,Giant foxtail plant response rating,giant foxtail; [5],10
same,Giant foxtail plant response rating (0 to 10 scale),"giant foxtail; Preemergence, Rate 250 g/ha",10
same,Giant foxtail plant response rating,giant foxtail; [8],10
same,Morningglory plant response rating,morningglory; [1],3
same,Morningglory plant response rating,morningglory; [2],4
same,"Plant response rating, Morningglory",morningglory; [3],5
same,"Plant response rating, Morningglory",morningglory; [4],0
same,Morningglory plant response rating,morningglory; [5],2
same,Morningglory plant response rating (0 to 10 scale),"morningglory; Preemergence, Rate 250 g/ha",2
same,Morningglory plant response rating,morningglory; [8],4
same,"Plant response rating, Morningglory",morningglory; [7],4
same,Redroot pigweed plant response rating,pigweed; [1],0
same,Redroot pigweed plant response rating,pigweed; [2],4
same,"Plant response rating, Redroot pigweed",pigweed; [3],9
same,"Plant response rating, Redroot pigweed",pigweed; [4],10
same,Redroot pigweed plant response rating,pigweed; [5],10
same,Redroot pigweed plant response rating (0 to 10 scale),"pigweed; Preemergence, Rate 250 g/ha",10
same,Redroot pigweed plant response rating,pigweed; [8],10
same,"Plant response rating, Redroot pigweed",pigweed; [7],4
same,Rape plant response rating,rape; [1],0
same,Rape plant response rating,rape; [2],0
same,"Plant response rating, Rape",rape; [3],9
same,"Plant response rating, Rape",rape; [4],0
same,Rape plant response rating,rape; [5],2
same,Rape plant response rating (0 to 10 scale),"rape; Preemergence, Rate 250 g/ha",4
same,Rape plant response rating,rape; [8],6
same,"Plant response rating, Rape",rape; [7],0
same,Soybean plant response rating,soybean; [1],4
same,Soybean plant response rating,soybean; [2],6
same,"Plant response rating, Soybean",soybean; [3],6
same,"Plant response rating, Soybean",soybean; [4],0
same,Soybean plant response rating,soybean; [5],0
same,Soybean plant response rating (0 to 10 scale),"soybean; Preemergence, Rate 250 g/ha",0
same,Soybean plant response rating,soybean; [8],10
same,Sugarbeets plant response rating,sugar beet; [1],6
same,Sugarbeets plant response rating,sugar beet; [2],6
same,"Plant response rating, Sugarbeets",sugar beet; [3],6
same,"Plant response rating, Sugarbeets",sugar beet; [4],5
same,Sugarbeets plant response rating,sugar beet; [5],5
same,Sugarbeets plant response rating (0 to 10 scale),"sugar beet; Preemergence, Rate 250 g/ha",5
same,Sugarbeets plant response rating,sugar beet; [8],7
same,"Plant response rating, Sugarbeets",sugar beet; [7],6
same,Velvetleaf plant response rating,velvetleaf; [1],2
same,Velvetleaf plant response rating,velvetleaf; [2],5
same,"Plant response rating, Velvetleaf",velvetleaf; [3],7
same,"Plant response rating, Velvetleaf",velvetleaf; [4],2
same,Velvetleaf plant response rating,velvetleaf; [5],6
same,Velvetleaf plant response rating (0 to 10 scale),"velvetleaf; Preemergence, Rate 250 g/ha",8
same,Velvetleaf plant response rating,velvetleaf; [8],9
same,"Plant response rating, Velvetleaf",velvetleaf; [7],7
same,Wheat plant response rating,wheat; [1],0
same,Wheat plant response rating,wheat; [2],0
same,"Plant response rating, Wheat",wheat; [3],5
same,"Plant response rating, Wheat",wheat; [4],0
same,Wheat plant response rating,wheat; [5],0
same,Wheat plant response rating (0 to 10 scale),"wheat; Preemergence, Rate 250 g/ha",2
same,Wheat plant response rating,wheat; [8],8
same,"Plant response rating, Wheat",wheat; [7],5
same,Wild oats plant response rating,wild oat; [1],0
same,Wild oats plant response rating,wild oat; [2],4
same,"Plant response rating, Wild oats",wild oat; [3],7
same,"Plant response rating, Wild oats",wild oat; [4],10
same,Wild oats plant response rating,wild oat; [5],2
same,Wild oats plant response rating (0 to 10 scale),"wild oat; Preemergence, Rate 250 g/ha",4
same,Wild oats plant response rating,wild oat; [8],9
same,"Plant response rating, Wild oats",wild oat; [7],7
same,Nutsedge plant response rating,purple nutsedge; [1],0
same,Nutsedge plant response rating,purple nutsedge; [2],0
same,"Plant response rating, Nutsedge",purple nutsedge; [3],0
same,"Plant response rating, Nutsedge",purple nutsedge; [4],0
same,Nutsedge plant response rating,purple nutsedge; [5],9
same,Nutsedge plant response rating (0 to 10 scale),"purple nutsedge; Preemergence, Rate 250 g/ha",10
same,Nutsedge plant response rating,purple nutsedge; [8],10
same,"Plant response rating, Nutsedge",purple nutsedge; [7],0
